Experiment [1] deals with T1, c-Met kinase domain recombinant protein (Homo sapiens, UniProt P08581).
T1 construct: 50 μL diluted solution of c-Met kinase domain recombinant protein in reaction buffer was added to initiate the reaction
As to the kind of experiment: biochemical. The settings on record: read-out: Inhibition rate at 10 μM (%). The procedure: Enzymatic reaction substrate Poly(Glu,Tyr)4:1 was diluted to 20 μg/mL in potassium ion free PBS (10 mM sodium phosphate buffer, 150 mM NaCl, pH7.2-7.4), microplate was coated with this solution at 125 μL per well, and reacted at 37° C. for 12-16 hours. Liquid in wells was discarded. Plate washing: the plate was washed 3 times for 5 minutes each with 200 μL per well of T-PBS (potassium ion free PBS containing 0.1% Tween-20).
Into each well was added 49 μL diluted ATP solution in reaction buffer (50 mM HEPES pH 7.4, 50 mM MgCl2, 0.5 mM MnCl2, 0.2 mM Na3VO4, 1 mM DTT), and 1 μL per well of compound to be tested was added, then 50 μL diluted solution of c-Met kinase domain recombinant protein in reaction buffer was added to initiate the reaction, each test was setup with two wells of ATP free control. Reaction was performed in a 37° C. shaker (100 rpm) for 1 hour. Liquid in the wells was discarded, and the plate was washed three times with T-PBS.
Antibody PY99 was added at 100 μL per well (the antibody was 1:500 diluted in T-PBS containing 5 mg/mL BSA), incubated in a 37° C. shaker for 0.5 hour. Liquid in the wells was discarded, and the plate was washed three times with T-PBS.
Goat anti mouse secondary antibody labeled with horseradish peroxidase was added at 100 μL per well (the antibody was 1:2000 diluted in T-PBS containing 5 mg/mL BSA), incubated in a 37° C. shaker for 0.5 hour. Liquid in the wells was discarded, and the plate was washed three times with T-PBS.
Reaction was terminated by adding 50 μL per well of 2M H2SO4, the plate was read at 490 nm using a VERSAmax microplate reader with tunable wavelength.
(§1) Inhibition rate of the sample was calculated using the following equation: […]

Experiment [2] concerns the target T1, c-Met kinase domain recombinant protein. Put plainly: biochemical. The settings on record: for inhibition at 0.1 µM: read-out: Average inhibition rate at 0.1 μM (%); for inhibition at 1 µM: read-out: Average inhibition rate at 1 μM (%); for inhibition at 10 µM: read-out: Average inhibition rate at 10 μM (%). Here is the method:
Enzymatic reaction substrate Poly(Glu,Tyr)4:1 was diluted to 20 μg/mL in potassium ion free PBS (10 mM sodium phosphate buffer, 150 mM NaCl, pH7.2-7.4), microplate was coated with this solution at 125 μL per well, and reacted at 37° C. for 12-16 hours. Liquid in wells was discarded, then the plate was washed 3 times for 5 minutes each with 200 μL per well of T-PBS (PBS containing 0.1% Tween-20).
Into each well was added 50 μL diluted ATP solution in reaction buffer (50 mM HEPES pH 7.4, 50 mM MgCl2, 0.5 mM MnCl2, 0.2 mM Na3VO4, 1 mM DTT), the final concentration was 5 μM. Test compound was diluted in DMSO to proper concentration, added at 1 μL per well or corresponding level of DMSO (negative control wells), then 49 μL diluted solution of c-Met kinase domain recombinant protein in reaction buffer was added to initiate the reaction, each test was setup with two wells of ATP free control. Reaction was performed in a 37° C. shaker (100 rpm) for 1 hour. The plate was washed three times with T-PBS. Primary antibody PY99 diluted solution was added at 100 μL per well, incubated in a 37° C. shaker for 0.5 hour.
The plate was washed three times with T-PBS. Goat anti mouse secondary antibody labeled with horseradish peroxidase was added at 100 μL per well, incubated in a 37° C. shaker for 0.5 hour. The plate was washed three times with T-PBS. […] Reaction was terminated by adding 50 μL per well of 2M H2SO4, the plate was read at 490 nm using a SPECTRA MAX 190 microplate reader with tunable wavelength.
as §1
IC50 was calculated by fitting the data for a four parameter fit using inhibition curve.

The source of these data is patent US9988381B2, “Five-member-heterocycle fused pyridine compounds, method of producing the same, and use thereof” (SHANGHAI INSTITUTE OF MATERIA MEDICA, CHINESE ACADEMY OF …, priority 2013, dated 2018).

Each structure is given as a SMILES string. Read-outs that look alike come from different tables or passages of the source. Bounds are passed on as bounds.

T1 sequence (P08581 1078-1345 limits assumed): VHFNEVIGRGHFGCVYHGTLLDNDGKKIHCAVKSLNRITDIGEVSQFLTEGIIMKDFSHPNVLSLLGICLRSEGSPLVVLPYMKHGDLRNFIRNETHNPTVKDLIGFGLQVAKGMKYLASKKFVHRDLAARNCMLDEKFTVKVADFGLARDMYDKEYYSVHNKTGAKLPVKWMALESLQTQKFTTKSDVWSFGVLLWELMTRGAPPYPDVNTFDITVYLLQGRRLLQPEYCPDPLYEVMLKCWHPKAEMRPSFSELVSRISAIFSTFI

With `CC(C)(C)OC(=O)N1CC=C(c2cnc3cnn(S(=O)(=O)c4cnc5ccccn45)c3c2)CC1` [Example 35, 1-(imidazo[1,2-a]pyridine-3-sulfonyl)-6-[(1-t-butoxycarbonyl)-4-(1,2,3,6-tetrahydropyridinyl)]-1-H-pyrazolo[4,3-b]pyridine], the inhibition (commonly how much of the control response was suppressed) at 10 µM in experiment [1] stood at 62.5%. Further, in experiment [2], the inhibition at 0.1 µM came out at 51.1%, the inhibition at 1 µM was found to be 53.2% and the inhibition at 10 µM came to 62.5%.
As for `O=S(=O)(c1cnc2ccccn12)n1ncc2ncc(-c3ccc4c(c3)OCCO4)cc21` [Example 36, 1-(imidazo[1,2-a]pyridine-3-sulfonyl)-6-[6-(1,4-benzodioxanyl)]-1-H-pyrazolo[4,3-b]pyridine], the inhibition at 10 µM in experiment [1] stood at 66.3%. Further, in experiment [2], the inhibition at 0.1 µM was determined as 45.6%, the inhibition at 1 µM is 60% and the inhibition at 10 µM turned out to be 66.3%.
Take `O=S(=O)(c1cnc2ccccn12)n1ncc2ncc(-c3ccc(CN4CCOCC4)cc3)cc21` [Example 38, 1-(imidazo[1,2-a]pyridine-3-sulfonyl)-6-(4-morpholinomethylphenyl)-1-H-pyrazolo[4,3-b]pyridine]: the inhibition at 10 µM in experiment [1] was 87.1%. Also, in experiment [2], the inhibition at 0.1 µM came to 63.2%, the inhibition at 1 µM came out at 63.9% and the inhibition at 10 µM is 87.1%.
Turning to `CC(=O)c1ccc(-c2cnc3cnn(S(=O)(=O)c4cnc5ccccn45)c3c2)cc1` [Example 40, 1-(imidazo[1,2-a]pyridine-3-sulfonyl)-6-(4-acetylphenyl)-1-H-pyrazolo[4,3-b]pyridine], in experiment [1], the inhibition at 10 µM was determined as 66%. For the same compound, in experiment [2], the inhibition at 0.1 µM was 45.7%, the inhibition at 1 µM stood at 57.4% and the inhibition at 10 µM was found to be 66%.
With `CN(C)C(=O)c1ccc(-c2cnc3cnn(S(=O)(=O)c4cnc5ccccn45)c3c2)cc1` [Example 41, 1-(imidazo[1,2-a]pyridine-3-sulfonyl)-6-(4-dimethylaminocarbonylphenyl)-1-H-pyrazolo[4,3-b]pyridine], the inhibition at 10 µM in experiment [1] was 68.7%. Further, in experiment [2], the inhibition at 0.1 µM amounted to 45.1%, the inhibition at 1 µM amounted to 54.6% and the inhibition at 10 µM was found to be 68.7%.
In the case of `CN(C)c1ccc(-c2cnc3cnn(S(=O)(=O)c4cnc5ccccn45)c3c2)cc1` [Example 42, 1-(imidazo[1,2-a]pyridine-3-sulfonyl)-6-(4-dimethylaminophenyl)-1-H-pyrazolo[4,3-b]pyridine], the inhibition at 10 µM in experiment [1] is 67.5%. For the same compound, in experiment [2], the inhibition at 0.1 µM came out at 45.5%, the inhibition at 1 µM was 58.4% and the inhibition at 10 µM worked out at 67.5%.
For `COc1ccc(OC)c(-c2cnc3cnn(S(=O)(=O)c4cnc5ccccn45)c3c2)c1` [Example 43, 1-(imidazo[1,2-a]pyridine-3-sulfonyl)-6-(2,5-dimethoxyphenyl)-1-H-pyrazolo[4,3-b]pyridine], in experiment [1], the inhibition at 10 µM was determined as 58.4%. For the same compound, in experiment [2], the inhibition at 0.1 µM worked out at 23.1%, the inhibition at 1 µM came out at 47.6% and the inhibition at 10 µM came out at 68.7%.
As for `CC(C)(C)OC(=O)N1CCC(n2cc(-c3cnc4cnn(S(=O)(=O)c5cnc6ncccn56)c4c3)cn2)CC1` [Example 52, 1-(imidazo[1,2-a]pyrimidine-3-sulfonyl)-6-{{1-[(1-t-butoxycarbonyl)-4-piperidinyl]}-4-pyrazolyl}-1-H-pyrazolo[4,3-b]pyridine], the inhibition at 10 µM in experiment [1] was found to be 54.5%. Moreover, in experiment [2], the inhibition at 0.1 µM came to 24.5%, the inhibition at 1 µM is 50.3% and the inhibition at 10 µM was determined as 54.5%.
On to `O=C(c1ccc(C(F)(F)F)cc1)N1CCC(n2cc(-c3cnc4cnn(S(=O)(=O)c5cnc6ccccn56)c4c3)cn2)CC1` [Example 58, 1-(imidazo[1,2-a]pyridine-3-sulfonyl)-6-{{1-[(1-p-trifluoromethylbenzoyl)-4-piperidinyl]}-4-pyrazolyl}-1-H-pyrazolo[4,3-b]pyridine], for which the inhibition at 10 µM in experiment [1] is 58.9%. In experiment [2], the inhibition at 0.1 µM came to 52.8%, the inhibition at 1 µM was 55.7% and the inhibition at 10 µM came out at 57.4%.
`CC(C)(C)OC(=O)N1CCC(n2cc(-c3cnc4cnn(S(=O)(=O)c5cnc6ccc(-c7cnn(C8CCN(C(=O)OC(C)(C)C)CC8)c7)nn56)c4c3)cn2)CC1` [Example 62, 1-{(6-{{1-[(1-t-butoxycarbonyl)-4-piperidinyl]}-4-pyrazolyl}-imidazo[1,2-b]pyridazine)-3-sulfonyl}-6-{{1-[(1-t-butoxycarbonyl)-4-piperidinyl]}-4-pyrazolyl}-1-H-pyrazolo[4,3-b]pyridine]: in experiment [1], the inhibition at 10 µM was 62.6%. Also, in experiment [2], the inhibition at 0.1 µM was determined as 73.2%, the inhibition at 1 µM was determined as 73.2% and the inhibition at 10 µM came to 80%.
Take `O=S(=O)(c1cnc2ccc(C(F)(F)F)cn12)n1ncc2ncc(-c3cnn(C4CCNCC4)c3)cc21` [Example 65]: the inhibition at 10 µM in experiment [1] turned out to be 79.3%. In experiment [2], the inhibition at 0.1 µM was determined as 60.8%, the inhibition at 1 µM stood at 65.1% and the inhibition at 10 µM was 69.8%.
The corresponding values for `CC(C)(C)OC(=O)N1CCC(n2cc(-c3cnc4cnn(S(=O)(=O)c5cnc6ccc(-c7cnn(C8CCN(C(=O)OC(C)(C)C)CC8)c7)cn56)c4c3)cn2)CC1` [Example 68, 1-{(6-{{1-[(1-t-butoxycarbonyl)-4-piperidinyl]}-4-pyrazolyl}-imidazo[1,2-a]pyridine)-3-sulfonyl}-6-{{1-[(1-t-butoxycarbonyl)-4-piperidinyl]}-4-pyrazolyl}-1-H-pyrazolo[4,3-b]pyridine] are 69.8%, 50.2%, 55.8% and 62%.
The corresponding values for `CC(C)N1CCC(n2cc(-c3cnc4cnn(S(=O)(=O)c5cnc6ccc(C(F)(F)F)cn56)c4c3)cn2)CC1` [Example 69] are 79.9%, 52.3%, 57.7% and 59.6%.
On to `Cn1cc(-c2cnc3cnn(S(=O)(=O)c4cnc5ccc(Br)cn45)c3c2)cn1` [Example 70, 1-[(6-bromo-imidazo[1,2-a]pyridine)-3-sulfonyl]-6-[(1-methyl)-4-pyrazolyl]-1-H-pyrazolo[4,3-b]pyridine], for which the inhibition at 10 µM in experiment [1] is 68.2%. Moreover, in experiment [2], the inhibition at 1 µM is 44.7% and the inhibition at 10 µM came to 79.3%.
Turning to `Cn1cc(-c2cnc3cnn(S(=O)(=O)c4cnc5ccc(-c6ccccc6)cn45)c3c2)cn1` [Example 71, 1-[(6-phenyl-imidazo[1,2-a]pyridine)-3-sulfonyl]-6-[(1-methyl)-4-pyrazolyl]-1-H-pyrazolo[4,3-b]pyridine], the inhibition at 10 µM in experiment [1] came to 62%. For the same compound, in experiment [2], the IC50 (commonly the concentration that gives 50% inhibition) turned out to be 100 ± 10 pM, the inhibition at 0.1 µM is 68.5%, the inhibition at 1 µM worked out at 73.4% and the inhibition at 10 µM was 83.8%.
Take `Cn1cc(-c2cnc3cnn(S(=O)(=O)c4cnc5ccc(-c6cncnc6)cn45)c3c2)cn1` [Example 74, 1-{[6-(5-pyrimidine)-imidazo[1,2-a]pyridine]-3-sulfonyl}-6-[(1-methyl)-4-pyrazolyl]-1-H-pyrazolo[4,3-b]pyridine]: the inhibition at 10 µM in experiment [1] was > 67.6%; in experiment [2], 12.1%.
